This experiment has as its system C26 cells. As to the kind of experiment: Metabolic activity of C26 cells after fatty acid pre-incubation and chemotherapy incubation. The experiment is classed as cell-based, Murine. The note with it: 4 days pre-incubation with 50 µM fatty acid, medium removed, compared to control, p< 0.0001 for EPA or DPA. The procedure:
C = mice receiving control diet B, TB = tumor-bearing mice receiving control diet, TB-SNC = tumor-bearing mice receiving the specific nutritional combination.
Prior to chemotherapy incubations, C26 cells were pre-incubated for 4 days with EPA, DHA or DPA in a final concentration of 50 µM. To avoid direct interaction between fatty acids and chemotherapeutics, the medium containing fatty acids was removed before the addition of chemotherapy. The cells were incubated for 24 hr with the chemotherapeutics cisplatin and doxorubicin, after incubation the metabolic activity was measured.

Each structure is given as a SMILES string.

For the compound `CC/C=C\C/C=C\C/C=C\C/C=C\C/C=C\C/C=C\CCC(=O)O` [DHA, docosahexanoic acid], the “metabolic activity after cisplatin treatment” value (then 24 hr cisplatin) is recorded as “no significant changes in metabolic activity”. Also, the “metabolic activity of doxorubicin treated cells” value (then 24 hr doxorubicin) is “no significant changes in metabolic activity”.

For the origin of these results see patent EP2696861B1, “COMBINATION OF EPA, DPA AND/OR DHA WITH A CHEMOTHERAPEUTIC AGENT” (priority 2011, dated 2012).
